As usually defined, the IC50 is the midpoint of a concentration-inhibition curve. Read a low IC50 as higher potency.

This test has as its system PC3 cells. Briefly: NAMPT Cell Proliferation Assay. In kind it is cell-based. The conditions noted are these: Homo sapiens, PC-3, 120 h, 5 days incubation, cell viability by Cell Titer Glo. An outline of the steps:
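Five-day CellTiter-Glo viability readout in PC3 cells grown in RPMI/10% heat-inactivated FBS. Compounds added after overnight attachment as a 10-fold dilution series, […]. Percent inhibition fitted to sigmoidal dose-response to derive IC50.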
In general terms: Cellular ATP, detected with luciferase, serves as a proxy for viable cell number.
Regarding `CC(C)(C)C(=O)N1CC(c2ccc(NC(=O)[C@H]3CCN(c4cccnn4)C3)cc2)C1` [Example 789, (3S)-N-{4-[1-(2,2-dimethylpropanoyl)azetidin-3-yl]phenyl}-1-(pyridazin-3-yl)pyrrolidine-3-carboxamide], it took 28.4 nM to reach half-maximal inhibition (IC50). In other words, the double-digit nanomolar range.
In the case of `O=C(Nc1ccc(C2CN(C(=O)c3cc(F)cc(F)c3)C2)cc1)[C@H]1CCN(c2cccnn2)C1` [Example 790, (3S)-N-{4-[1-(3,5-difluorobenzoyl)azetidin-3-yl]phenyl}-1-(pyridazin-3-yl)pyrrolidine-3-carboxamide], the IC50 was determined as 74.6 nM.
Compound `O=C(Nc1ccc(C2CN(C(=O)c3ccc(F)cc3F)C2)cc1)[C@H]1CCN(c2cccnn2)C1` [Example 792, (3S)-N-{4-[1-(2,4-difluorobenzoyl)azetidin-3-yl]phenyl}-1-(pyridazin-3-yl)pyrrolidine-3-carboxamide] displayed an IC50 of 8.8 nM.
`O=C(Nc1ccc(C2CCN(C(=O)c3ccccc3)CC2)cc1)[C@@H]1CCN(c2cccnn2)C1` [Example 793, (3R)—N-[4-(1-benzoylpiperidin-4-yl)phenyl]-1-(pyridazin-3-yl)pyrrolidine-3-carboxamide] displayed a concentration for half-maximal inhibition (IC50) of 329 nM.
In turn, `O=C(Nc1ccc(C2CCN(C(=O)c3ccccc3F)CC2)cc1)[C@@H]1CCN(c2cccnn2)C1` [Example 794, (3R)—N-{4-[1-(2-fluorobenzoyl)piperidin-4-yl]phenyl}-1-(pyridazin-3-yl)pyrrolidine-3-carboxamide] displayed an IC50 of 196 nM.
On to `CC(C)(C)C(=O)N1CCC(c2ccc(NC(=O)[C@@H]3CCN(c4cccnn4)C3)cc2)CC1` [Example 795, (3R)—N-{4-[1-(2,2-dimethylpropanoyl)piperidin-4-yl]phenyl}-1-(pyridazin-3-yl)pyrrolidine-3-carboxamide], for which the IC50 is 773 nM.
As for `O=C(Nc1ccc(OC2CCN(C(=O)C3CCCCC3)CC2)cc1)[C@H]1CCN(c2cccnn2)C1` [Example 796, (3S)—N-(4-{[1-(cyclohexylcarbonyl)piperidin-4-yl]oxy}phenyl)-1-(pyridazin-3-yl)pyrrolidine-3-carboxamide], half-maximal inhibition (IC50) was put at 11.7 nM.
The result for `O=C(Nc1ccc(OC2CCN(C(=O)c3ccccc3F)CC2)cc1)[C@H]1CCN(c2cccnn2)C1` [Example 797, (3S)-N-(4-{[1-(2-fluorobenzoyl)piperidin-4-yl]oxy}phenyl)-1-(pyridazin-3-yl)pyrrolidine-3-carboxamide] reads 12.6 nM; that for `O=C(Nc1ccc(OC2CCN(C(=O)c3cccc(F)c3)CC2)cc1)[C@H]1CCN(c2cccnn2)C1` [Example 798, (3S)-N-(4-{[1-(3-fluorobenzoyl)piperidin-4-yl]oxy}phenyl)-1-(pyridazin-3-yl)pyrrolidine-3-carboxamide], 66.4 nM.
For the compound `O=C(Nc1ccc(OC2CCN(C(=O)c3ccccc3)CC2)cc1)[C@H]1CCN(c2cccnn2)C1` [Example 799, (3S)-N-{4-[(1-benzoylpiperidin-4-yl)oxy]phenyl}-1-(pyridazin-3-yl)pyrrolidine-3-carboxamide], 25.5 nM corresponded to half-maximal inhibition (IC50).
Compound `O=C(Nc1ccc(OC2CCN(C(=O)c3ccc(F)cc3)CC2)cc1)[C@H]1CCN(c2cccnn2)C1` [Example 800, (3S)-N-(4-{[1-(4-fluorobenzoyl)piperidin-4-yl]oxy}phenyl)-1-(pyridazin-3-yl)pyrrolidine-3-carboxamide] displayed a half-maximal inhibitory concentration (IC50) of 60 nM.
Compound `CC(C)(C)C(=O)N1CCC(Oc2ccc(NC(=O)[C@H]3CCN(c4cccnn4)C3)cc2)CC1` [Example 801, (3S)-N-(4-{[1-(2,2-dimethylpropanoyl)piperidin-4-yl]oxy}phenyl)-1-(pyridazin-3-yl)pyrrolidine-3-carboxamide] returned an IC50 of 24.6 nM. This IC50 is about 2.4-fold lower than that of the compound before.
For the compound `CC1CC1C(=O)N1CCC(Oc2ccc(NC(=O)[C@H]3CCN(c4cccnn4)C3)cc2)CC1` (stereo partly drawn) [Example 802, (3S)-N-[4-({1-[(2-methylcyclopropyl)carbonyl]piperidin-4-yl}oxy)phenyl]-1-(pyridazin-3-yl)pyrrolidine-3-carboxamide], half-maximal inhibition (IC50) was put at 26.3 nM.
Take `CC(C)(C)Cc1nnc(-c2ccc(NC(=O)C3CN(c4cccnn4)C3)cc2)o1` [Example 803, N-{4-[5-(2,2-dimethylpropyl)-1,3,4-oxadiazol-2-yl]phenyl}-1-(pyridazin-3-yl)azetidine-3-carboxamide]: the IC50 was determined as 1.61 nM.
The compound `CC(C)(C)Cn1cnc(-c2ccc(NC(=O)C3CN(c4cccnn4)C3)cc2)c1` [Example 804, N-{4-[1-(2,2-dimethylpropyl)-1H-imidazol-4-yl]phenyl}-1-(pyridazin-3-yl)azetidine-3-carboxamide] gave an IC50 of 7.92 nM.
`Cn1nc(C2CC2)cc1-c1ccc(NC(=O)C2CN(c3cccnn3)C2)cc1` [Example 805, N-[4-(3-cyclopropyl-1-methyl-1H-pyrazol-5-yl)phenyl]-1-(pyridazin-3-yl)azetidine-3-carboxamide] showed a concentration for half-maximal inhibition (IC50) of 65 nM.
`CC(C)(C)Cc1nc(-c2ccc(NC(=O)C3CN(c4cccnn4)C3)cc2)no1` [Example 806, N-{4-[5-(2,2-dimethylpropyl)-1,2,4-oxadiazol-3-yl]phenyl}-1-(pyridazin-3-yl)azetidine-3-carboxamide] displayed an IC50 of 3.13 nM.
For `COCCn1nc(C2CC2)cc1-c1ccc(NC(=O)C2CN(c3cccnn3)C2)cc1` [Example 807, N-{4-[3-cyclopropyl-1-(2-methoxyethyl)-1H-pyrazol-5-yl]phenyl}-1-(pyridazin-3-yl)azetidine-3-carboxamide], the IC50 is 4.15 nM.
`CC(C)(C)OC(=O)N1CCC(c2ccc(C(=O)NC3CN(c4cccnn4)C3)s2)CC1` [Example 808, tert-butyl 4-(5-{[1-(pyridazin-3-yl)azetidin-3-yl]carbamoyl}thiophen-2-yl)piperidine-1-carboxylate] had an IC50 of 41.1 nM. This IC50 is about 9.9-fold higher than that of the compound before.
The result for `CC(C)(C)OC(=O)N1CCC(F)(c2ccc(NC(=O)C3CN(c4cccnn4)C3)cc2)CC1` [Example 809, tert-butyl 4-fluoro-4-[4-({[1-(pyridazin-3-yl)azetidin-3-yl]carbonyl}amino)phenyl]piperidine-1-carboxylate] reads 2.4 nM; that for `O=C(NC1CN(c2cccnn2)C1)c1ccc(C2CCN(C(=O)c3ccccc3)CC2)s1` [Example 810, 5-(1-benzoylpiperidin-4-yl)-N-[1-(pyridazin-3-yl)azetidin-3-yl]thiophene-2-carboxamide], 61.1 nM; that for `O=C(NC1CN(c2cccnn2)C1)c1ccc(C2CCN(C(=O)c3ccccc3F)CC2)s1` [Example 811, 5-[1-(2-fluorobenzoyl)piperidin-4-yl]-N-[1-(pyridazin-3-yl)azetidin-3-yl]thiophene-2-carboxamide], 11 nM.
As to `Cc1ccccc1C(=O)N1CCC(c2ccc(C(=O)NC3CN(c4cccnn4)C3)s2)CC1` [Example 812, 5-[1-(2-methylbenzoyl)piperidin-4-yl]-N-[1-(pyridazin-3-yl)azetidin-3-yl]thiophene-2-carboxamide], half-maximal inhibition (IC50) required 10.2 nM.
In turn, `O=C(NC1CN(c2cccnn2)C1)c1ccc(C2CCN(C(=O)c3ccc(F)cc3F)CC2)s1` [Example 813, 5-[1-(2,4-difluorobenzoyl)piperidin-4-yl]-N-[1-(pyridazin-3-yl)azetidin-3-yl]thiophene-2-carboxamide] showed a concentration for half-maximal inhibition (IC50) of 78.6 nM.
`O=C(NC1CN(c2cccnn2)C1)c1ccc(C2CCN(C(=O)c3cccc(F)c3)CC2)s1` [Example 814, 5-[1-(3-fluorobenzoyl)piperidin-4-yl]-N-[1-(pyridazin-3-yl)azetidin-3-yl]thiophene-2-carboxamide] returned a concentration for half-maximal inhibition (IC50) of 81.9 nM.
Consider `O=C(NC1CN(c2cccnn2)C1)c1ccc(C2CCN(C(=O)c3ccc(F)cc3)CC2)s1` [Example 815, 5-[1-(4-fluorobenzoyl)piperidin-4-yl]-N-[1-(pyridazin-3-yl)azetidin-3-yl]thiophene-2-carboxamide], for which the midpoint of inhibition, the IC50, lay at 185 nM.
`O=C(NC1CN(c2cccnn2)C1)c1ccc(C2CCN(C(=O)c3cc(F)cc(F)c3)CC2)s1` [Example 816, 5-[1-(3,5-difluorobenzoyl)piperidin-4-yl]-N-[1-(pyridazin-3-yl)azetidin-3-yl]thiophene-2-carboxamide] registered an IC50 of 188 nM.
In the case of `O=C(Nc1ccc(-c2cc(C3CC3)nn2CCO)cc1)C1CN(c2cccnn2)C1` [Example 817, N-{4-[3-cyclopropyl-1-(2-hydroxyethyl)-1H-pyrazol-5-yl]phenyl}-1-(pyridazin-3-yl)azetidine-3-carboxamide], 64.1 nM corresponded to half-maximal inhibition (IC50).
The figure for `O=C(Nc1ccc(C2CCN(C(=O)c3ccccc3)CC2)cc1)C1CN(c2ccc(F)nn2)C1` [Example 818, N-[4-(1-benzoylpiperidin-4-yl)phenyl]-1-(6-fluoropyridazin-3-yl)azetidine-3-carboxamide] is 29.4 nM; for `O=C(Nc1ccc(C2CCN(C(=O)c3ccccc3F)CC2)cc1)C1CN(c2ccc(F)nn2)C1` [Example 819, N-{4-[1-(2-fluorobenzoyl)piperidin-4-yl]phenyl}-1-(6-fluoropyridazin-3-yl)azetidine-3-carboxamide] it is 8.56 nM.
In the case of `CC(C)(C)C(=O)N1CCC(c2ccc(NC(=O)C3CN(c4ccc(F)nn4)C3)cc2)CC1` [Example 820, N-{4-[1-(2,2-dimethylpropanoyl)piperidin-4-yl]phenyl}-1-(6-fluoropyridazin-3-yl)azetidine-3-carboxamide], the IC50 is 75.4 nM. Compared with the last compound, the IC50 is about 8.8-fold higher.
`CC(C)C(=O)N1CCC(c2ccc(NC(=O)C3CN(c4ccc(F)nn4)C3)cc2)CC1` [Example 821, 1-(6-fluoropyridazin-3-yl)-N-{4-[1-(2-methylpropanoyl)piperidin-4-yl]phenyl}azetidine-3-carboxamide] yielded a half-inhibitory concentration (IC50) of 165 nM.
Regarding `CCC(CC)C(=O)N1CCC(c2ccc(NC(=O)C3CN(c4ccc(F)nn4)C3)cc2)CC1` [Example 822, N-{4-[1-(2-ethylbutanoyl)piperidin-4-yl]phenyl}-1-(6-fluoropyridazin-3-yl)azetidine-3-carboxamide], the IC50 came to 60.5 nM. This IC50 lies about 2.7-fold lower than the previous one.
With `O=C(Nc1ccc(C2CCN(C(=O)c3ccc(F)cc3)CC2)cc1)C1CN(c2ccc(F)nn2)C1` [Example 823, N-{4-[1-(4-fluorobenzoyl)piperidin-4-yl]phenyl}-1-(6-fluoropyridazin-3-yl)azetidine-3-carboxamide], the IC50 amounted to 247 nM.

The values above are taken from patent US20130303509A1, “NAMPT INHIBITORS” (AbbVie Inc., priority 2012, published 2013).
